Laboratory results reported in ChEMBL document CHEMBL5512683, “Discovery of Novel ERα and Aromatase Dual-Targeting PROTAC Degraders to Overcome Endocrine-Resistant Breast Cancer” (J Med Chem, 2024).
Active and inactive are the calls of the source. The rule behind the calls is not given here.

How the values were obtained:
[1] = Anti-proliferative activity against human MCF-10A cells incubated for 96 hrs by CCK8 assay; type: toxicity, cell-based
MCF7 [2] = assay: Antiproliferative activity against human resistant MCF7 cells harboring EGFR assessed as cell viability incubated for 96 hrs by CCK8 assay; conditions: MCF7, 96 h
Estrogen receptor beta = Estrogen receptor beta (Homo sapiens, UniProt Q92731); assay: Binding affinity to human ERbeta assessed as inhibition constant incubated under dark condition for 2 hrs by competitive fluorometric binding assay
Aromatase = target: T1, Aromatase (Homo sapiens, UniProt P11511); assay: Inhibition of recombinant human aromatase using ARO substrate/NADP+ mixture by fluorescence assay
T1 sequence (P11511 whole entry): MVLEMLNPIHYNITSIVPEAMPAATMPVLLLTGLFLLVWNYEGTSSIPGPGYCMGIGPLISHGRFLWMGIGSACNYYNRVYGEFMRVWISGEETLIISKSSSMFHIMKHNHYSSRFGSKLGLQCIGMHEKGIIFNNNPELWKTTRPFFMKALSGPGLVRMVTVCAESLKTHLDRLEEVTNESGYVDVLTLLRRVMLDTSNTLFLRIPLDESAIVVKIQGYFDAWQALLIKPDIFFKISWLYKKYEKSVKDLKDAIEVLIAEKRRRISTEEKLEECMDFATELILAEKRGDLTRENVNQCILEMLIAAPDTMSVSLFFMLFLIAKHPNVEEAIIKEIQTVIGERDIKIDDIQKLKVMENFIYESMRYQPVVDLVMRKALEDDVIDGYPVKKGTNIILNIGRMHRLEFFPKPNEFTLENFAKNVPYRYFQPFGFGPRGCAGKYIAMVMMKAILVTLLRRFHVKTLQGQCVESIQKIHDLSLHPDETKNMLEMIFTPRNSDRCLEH

MCF7 [3] = assay: Antiproliferative activity against human resistant MCF7 cells harboring ERalpha D538G mutant at LBD assessed as cell viability incubated for 96 hrs by CCK8 assay; conditions: MCF7, 96 h
MCF7 [4] = assay: Antiproliferative activity against human resistant MCF7 cells harboring ERalpha Y537S mutant at LBD assessed as cell viability incubated for 96 hrs by CCK8 assay; conditions: MCF7, 96 h
MCF7 [5] = assay: Anti-proliferative activity against ERalpha positive human MCF7 cells incubated for 96 hrs by CCK8 assay; conditions: MCF7, 96 h
[6] = target: von Hippel-Lindau disease tumor suppressor/Aromatase (Homo sapiens, UniProt P11511+P40337); assay: PROTAC activity at human ARO/VHL E3 ligase in human MCF-7 cells assessed as degradation of ARO at 1 uM incubated for 24 hrs by Western blot analysis; type: cell-based; conditions: mcf7, 24 h
MCF7 [7] = assay: In vivo PROTAC activity in aromatase/VHL E3 ligase in human MCF7 cell xenografted in Balb/c mouse model assessed as reduction in ARO level in tumor at 5 mg/kg, ip every other day measured upto 20 days; type: functional, organism-based; conditions: time <= 20.0 day
MCF7 [8] = assay: In vivo PROTAC activity in ERalpha/VHL E3 ligase in human MCF7 cell xenografted in Balb/c mouse model assessed as reduction in ERalpha level in tumor at 5 mg/kg, ip every other day measured upto 20 days; type: functional, organism-based; conditions: time <= 20.0 day

Estrogen receptor beta, sequence (Q92731 whole entry): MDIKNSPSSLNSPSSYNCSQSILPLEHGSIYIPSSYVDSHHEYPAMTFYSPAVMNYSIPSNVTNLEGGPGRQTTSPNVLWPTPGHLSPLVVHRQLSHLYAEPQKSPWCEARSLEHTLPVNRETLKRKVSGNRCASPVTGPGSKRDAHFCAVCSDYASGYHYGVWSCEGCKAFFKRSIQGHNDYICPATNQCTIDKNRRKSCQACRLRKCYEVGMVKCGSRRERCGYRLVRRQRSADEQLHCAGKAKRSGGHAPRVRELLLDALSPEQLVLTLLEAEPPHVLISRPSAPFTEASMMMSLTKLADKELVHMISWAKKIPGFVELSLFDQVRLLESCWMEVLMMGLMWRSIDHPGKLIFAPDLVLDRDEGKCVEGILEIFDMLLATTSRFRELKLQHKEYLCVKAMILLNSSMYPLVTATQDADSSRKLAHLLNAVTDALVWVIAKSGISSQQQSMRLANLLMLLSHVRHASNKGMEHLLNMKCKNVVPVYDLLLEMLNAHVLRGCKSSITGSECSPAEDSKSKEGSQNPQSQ
von Hippel-Lindau disease tumor suppressor/Aromatase, sequence (P40337 whole entry, one chain of several): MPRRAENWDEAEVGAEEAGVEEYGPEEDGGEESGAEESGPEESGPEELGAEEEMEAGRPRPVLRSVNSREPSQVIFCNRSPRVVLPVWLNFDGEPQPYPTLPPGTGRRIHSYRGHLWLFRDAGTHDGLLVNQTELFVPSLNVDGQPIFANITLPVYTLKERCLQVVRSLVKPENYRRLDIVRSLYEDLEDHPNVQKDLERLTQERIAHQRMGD

Cc1ncsc1-c1ccc([C@H](C)NC(=O)[C@@H]2C[C@@H](O)CN2C(=O)[C@@H](NC(=O)CCCCCCCCCOc2ccc(N(CC(F)(F)F)S(=O)(=O)C3CC4OC3C(c3ccc(-n5ccnc5)cc3)=C4c3ccc(O)cc3)cc2)C(C)(C)C)cc1 (stereo partly specified)
IC50 at 96 h [1]: > 100 µM
IC50 (MCF7 [2]): > 100 µM
Ki (Estrogen receptor beta): > 79 µM
IC50 (Aromatase): > 100 µM
IC50 (MCF7 [3]): > 100 µM
IC50 (MCF7 [4]): 100 µM
IC50 (MCF7 [5]): 0.33 µM
Activity [6]: Active

Cc1ncsc1-c1ccc([C@H](C)NC(=O)[C@@H]2C[C@@H](O)CN2C(=O)[C@@H](NC(=O)CCCCCCCOc2ccc(N(CC(F)(F)F)S(=O)(=O)C3CC4OC3C(c3ccc(-n5ccnc5)cc3)=C4c3ccc(O)cc3)cc2)C(C)(C)C)cc1 (stereo partly specified)
IC50 at 96 h [1]: > 100 µM
IC50 (MCF7 [2]): 4.7 µM
IC50 (Aromatase): 10 µM
IC50 (MCF7 [3]): 29 µM
IC50 (MCF7 [4]): 30 µM
IC50 (MCF7 [5]): 1.8 µM
Activity [6]: Active

Cc1ncsc1-c1ccc([C@H](C)NC(=O)[C@@H]2C[C@@H](O)CN2C(=O)[C@@H](NC(=O)CCCCCOc2ccc(N(CC(F)(F)F)S(=O)(=O)C3CC4OC3C(c3ccc(-n5cncn5)cc3)=C4c3ccc(O)cc3)cc2)C(C)(C)C)cc1 (stereo partly specified)
IC50 at 96 h [1]: > 100 µM
IC50 (MCF7 [2]): 0.63 µM
IC50 (Aromatase): > 100 µM
IC50 (MCF7 [3]): 0.69 µM
IC50 (MCF7 [4]): 4 µM
IC50 (MCF7 [5]): 0.56 µM

O=C(COc1cccc2c1C(=O)N(C1CCC(=O)NC1=O)C2=O)NCCCOc1ccc(N(CC(F)(F)F)S(=O)(=O)C2CC3OC2C(c2ccc(-n4ccnc4)cc2)=C3c2ccc(O)cc2)cc1 (stereo unspecified)
IC50 at 96 h [1]: > 100 µM
IC50 (MCF7 [2]): 25 µM
Ki (Estrogen receptor beta): > 79 µM
IC50 (Aromatase): > 100 µM
IC50 (MCF7 [3]): 6.4 µM
IC50 (MCF7 [4]): 9.5 µM
IC50 (MCF7 [5]): 8.7 µM

CC/C(=C(\c1ccc(O)cc1)c1ccc(OCCN(C)C)cc1)c1ccccc1 [AFIMOXIFENE]
IC50 at 96 h [1]: 21 µM
IC50 (Aromatase): > 100 µM

N#Cc1ccc(C(c2ccc(C#N)cc2)n2cncn2)cc1 [LETROZOLE]
IC50 at 96 h [1]: > 100 µM
Activity (MCF7 [7]): Active
Activity (MCF7 [8]): Active

COc1ccc(N(CC(F)(F)F)S(=O)(=O)C2CC3OC2C(c2ccc(O)cc2)=C3c2ccc(O)cc2)cc1 (stereo unspecified)
IC50 (Aromatase): > 100 µM

Cc1ncsc1-c1ccc([C@@H](C)NC(=O)[C@H]2C[C@H](O)CN2C(=O)[C@H](NC(=O)COCCOCCOCCOc2ccc(N(CC(F)(F)F)S(=O)(=O)C3CC4OC3C(c3ccc(-n5ccnc5)cc3)=C4c3ccc(O)cc3)cc2)C(C)(C)C)cc1 (stereo partly specified)
IC50 at 96 h [1]: > 100 µM
IC50 (MCF7 [2]): 7.3 µM
IC50 (Aromatase): 2.6 µM
IC50 (MCF7 [3]): > 100 µM
IC50 (MCF7 [4]): 100 µM
IC50 (MCF7 [5]): 0.51 µM
Activity [6]: Active

Cc1ncsc1-c1ccc([C@H](C)NC(=O)[C@@H]2C[C@@H](O)CN2C(=O)[C@@H](NC(=O)CCCCOc2ccc(N(CC(F)(F)F)S(=O)(=O)C3CC4OC3C(c3ccc(-n5ccnc5)cc3)=C4c3ccc(O)cc3)cc2)C(C)(C)C)cc1 (stereo partly specified)
IC50 at 96 h [1]: > 100 µM
IC50 (MCF7 [2]): 2.2 µM
IC50 (Aromatase): 0.32 µM
IC50 (MCF7 [3]): 100 µM
IC50 (MCF7 [4]): > 100 µM
IC50 (MCF7 [5]): 0.6 µM
Activity [6]: Active

Cc1ncsc1-c1ccc([C@H](C)NC(=O)[C@@H]2C[C@@H](O)CN2C(=O)[C@@H](NC(=O)CCCCCCCCOc2ccc(N(CC(F)(F)F)S(=O)(=O)C3CC4OC3C(c3ccc(-n5ccnc5)cc3)=C4c3ccc(O)cc3)cc2)C(C)(C)C)cc1 (stereo partly specified)
IC50 at 96 h [1]: > 100 µM
IC50 (MCF7 [2]): 1.4 µM
Ki (Estrogen receptor beta): > 79 µM
IC50 (Aromatase): > 100 µM
IC50 (MCF7 [3]): 1.8 µM
IC50 (MCF7 [4]): 100 µM
IC50 (MCF7 [5]): 1.3 µM
Activity [6]: Active

Cc1ncsc1-c1ccc([C@H](C)NC(=O)[C@@H]2C[C@@H](O)CN2C(=O)[C@@H](NC(=O)CCCCCCCCCCCOc2ccc(N(CC(F)(F)F)S(=O)(=O)C3CC4OC3C(c3ccc(-n5ccnc5)cc3)=C4c3ccc(O)cc3)cc2)C(C)(C)C)cc1 (stereo partly specified)
IC50 at 96 h [1]: > 100 µM
IC50 (MCF7 [2]): > 100 µM
Ki (Estrogen receptor beta): > 79 µM
IC50 (Aromatase): > 100 µM
IC50 (MCF7 [3]): 0.23 µM
IC50 (MCF7 [4]): 3.5 µM
IC50 (MCF7 [5]): 2 µM
Activity [6]: Active

Cc1ncsc1-c1ccc([C@H](C)NC(=O)[C@@H]2C[C@@H](O)CN2C(=O)[C@@H](NC(=O)CCCOc2ccc(N(CC(F)(F)F)S(=O)(=O)C3CC4OC3C(c3ccc(-n5ccnc5)cc3)=C4c3ccc(O)cc3)cc2)C(C)(C)C)cc1 (stereo partly specified)
IC50 at 96 h [1]: > 100 µM
IC50 (MCF7 [2]): > 100 µM
IC50 (Aromatase): 1.2 µM
IC50 (MCF7 [3]): > 100 µM
IC50 (MCF7 [4]): > 100 µM
IC50 (MCF7 [5]): 0.13 µM
Activity [6]: Active

Cc1ncsc1-c1ccc([C@H](C)NC(=O)[C@@H]2C[C@@H](O)CN2C(=O)[C@@H](NC(=O)COCCOc2ccc(N(CC(F)(F)F)S(=O)(=O)C3CC4OC3C(c3ccc(-n5ccnc5)cc3)=C4c3ccc(O)cc3)cc2)C(C)(C)C)cc1 (stereo partly specified)
IC50 at 96 h [1]: > 100 µM
IC50 (MCF7 [2]): > 100 µM
Ki (Estrogen receptor beta): > 79 µM
IC50 (Aromatase): 3.9 µM
IC50 (MCF7 [3]): > 100 µM
IC50 (MCF7 [4]): 15 µM
IC50 (MCF7 [5]): 1.5 µM
Activity [6]: Active

Cc1ncsc1-c1ccc([C@H](C)NC(=O)[C@@H]2C[C@@H](O)CN2C(=O)[C@@H](NC(=O)CCCCCCOc2ccc(N(CC(F)(F)F)S(=O)(=O)C3CC4OC3C(c3ccc(-n5ccnc5)cc3)=C4c3ccc(O)cc3)cc2)C(C)(C)C)cc1 (stereo partly specified)
IC50 at 96 h [1]: > 100 µM
IC50 (MCF7 [2]): 5.5 µM
IC50 (Aromatase): 5.2 µM
IC50 (MCF7 [3]): 1.7 µM
IC50 (MCF7 [4]): > 100 µM
IC50 (MCF7 [5]): 2.3 µM
Activity [6]: Active

Cc1ncsc1-c1ccc([C@H](C)NC(=O)[C@@H]2C[C@@H](O)CN2C(=O)[C@@H](NC(=O)COCCOCCOCCOCCOc2ccc(N(CC(F)(F)F)S(=O)(=O)C3CC4OC3C(c3ccc(-n5ccnc5)cc3)=C4c3ccc(O)cc3)cc2)C(C)(C)C)cc1 (stereo partly specified)
IC50 at 96 h [1]: > 100 µM
IC50 (MCF7 [2]): 17 µM
IC50 (Aromatase): 0.64 µM
IC50 (MCF7 [3]): 26 µM
IC50 (MCF7 [4]): 100 µM
IC50 (MCF7 [5]): 2.4 µM
Activity [6]: Active

C[C@]12CC[C@@H]3c4ccc(O)cc4C[C@@H](CCCCCCCCC[S+]([O-])CCCC(F)(F)C(F)(F)F)[C@H]3[C@@H]1CC[C@@H]2O (stereo partly specified) [FULVESTRANT]
IC50 at 96 h [1]: > 100 µM
Activity (MCF7 [7]): Active
IC50 (Aromatase): > 100 µM
Activity (MCF7 [8]): Active

O=C(COc1cccc2c1C(=O)N(C1CCC(=O)NC1=O)C2=O)NCCCCCOc1ccc(N(CC(F)(F)F)S(=O)(=O)C2CC3OC2C(c2ccc(-n4ccnc4)cc2)=C3c2ccc(O)cc2)cc1 (stereo unspecified)
IC50 at 96 h [1]: > 100 µM
IC50 (MCF7 [2]): 23 µM
Ki (Estrogen receptor beta): > 79 µM
IC50 (Aromatase): > 100 µM
IC50 (MCF7 [3]): 3.6 µM
IC50 (MCF7 [4]): 23 µM
IC50 (MCF7 [5]): 9.3 µM

Cc1ncsc1-c1ccc([C@H](C)NC(=O)[C@@H]2C[C@@H](O)CN2C(=O)[C@@H](NC(=O)CCCCCCCCCCOc2ccc(N(CC(F)(F)F)S(=O)(=O)C3CC4OC3C(c3ccc(-n5ccnc5)cc3)=C4c3ccc(O)cc3)cc2)C(C)(C)C)cc1 (stereo partly specified)
IC50 at 96 h [1]: > 100 µM
IC50 (MCF7 [2]): > 100 µM
IC50 (Aromatase): > 100 µM
IC50 (MCF7 [3]): > 100 µM
IC50 (MCF7 [4]): 22 µM
IC50 (MCF7 [5]): 4.9 µM
Activity [6]: Active
